Values of other authors, collected in article PMC10608500 (Marine Drugs, 2023).
Like-named read-outs stand apart in the source and are kept apart here.

Columns and labels:
[1] = tested on: U937 human histiocytic lymphoma cells; design: method as in PMID 34986303; conditions: read-out: IC50 against U937 cells
[2] = Table 1
[3] = tested on: CCRF-CEM human T lymphoblast cells; design: method as in PMID 34986303; conditions: read-out: IC50 against CCRF-CEM cells
[4] = from Oscillatoria sp., ref Li, T et al. 20
[5] = from Oscillatoria agardhii, ref Murakami, M et al. 21

amantamide A
IC50 [1]: 6.1 µM
Activities [2, 4]: CXCR7 agonist, cytotoxic
IC50 [3]: 8.3 µM

prenylagaramide A
Activities [2, 5]: no biological activity

heptavalinamide A
Activities ([2]; from Symploca sp., ref Suo, R et. al. 19): cytotoxic

prenylagaramide B
Activities [2, 5]: no biological activity

sepiatocin
Activities ([2]; from Sepia officinalis, ref Henry, J et al. 22): muscle contractile activity modulator (sepiatocin)

amantamide B
IC50 [1]: 7.3 µM
Activities [2, 4]: CXCR7 agonist, cytotoxic
IC50 [3]: 5.6 µM
